The values below come from patent publication US12421282B2, “Compositions and methods for the treatment of metabolic and liver disorders” (priority 2021, dated 2025).

Like-named read-outs stand apart in the source and are kept apart here. *1 amine or outer side, *2 acyl side, *3 side chain or, on linkers, in order; H or OH if unused. Where a SMILES comes first, the peptide text is derived from it. Side-chain parts run from the residue outwards. [ ]: non-standard residue; d: D form. The star is where a group is joined. Nonadecanoyl(19-PO3H2) = O=C(CCCCCCCCCCCCCCCCCCP(=O)(O)O)*; γGlu = O=C(O)[C@H](CCC(=O)[*:2])N[*:1]; AEEA = NCCOCCOCC(=O)O; Aib = CC(C)(N)C(=O)O

As a reminder, the IC50 is the concentration that inhibits the measured activity by half. By AUC(0-inf) is commonly meant the area under the concentration-time curve extrapolated to infinity. A high value points to more exposure. A word on the AUC(0-t): it is exposure summed from dosing to a finite time, without extrapolation to infinity. The low end stands for less exposure, the high end for more exposure. By Cmax is commonly meant the highest concentration seen after dosing. For orientation: Tmax means the time from dosing to the highest level. What is called half-life is the time in which the quantity being followed falls by half.

The target of data set [1] is human recombinant GLP-1 receptor (Homo sapiens, UniProt P43220). The data set can be described thus: TagLite binding assay, GLP-1 receptor, without and with 2% HSA. From the text: (§1) Binding data for Compounds 15-25, for two human recombinant G protein coupled receptors, GLP-1 and GIP, was obtained using […]® binding assay and Epics Therapeutics cell lines. The binding assay was repeated in the presence of 2% human serum albumin (HSA). Compounds 16, 21, and 22 have an HSA ratio for the GLP-1 receptor of 7.1, 7.6, and 7.8, respectively. Compounds 15, 18, and 23 have an HSA ratio for the GIP receptor of 7.3, 4.3, and 6.4, respectively. A lower HSA ratio indicates greater binding affinity for the receptor than for albumin when compared to a compound with a greater HSA ratio.
Chain of human recombinant GLP-1 receptor (P43220 24-463): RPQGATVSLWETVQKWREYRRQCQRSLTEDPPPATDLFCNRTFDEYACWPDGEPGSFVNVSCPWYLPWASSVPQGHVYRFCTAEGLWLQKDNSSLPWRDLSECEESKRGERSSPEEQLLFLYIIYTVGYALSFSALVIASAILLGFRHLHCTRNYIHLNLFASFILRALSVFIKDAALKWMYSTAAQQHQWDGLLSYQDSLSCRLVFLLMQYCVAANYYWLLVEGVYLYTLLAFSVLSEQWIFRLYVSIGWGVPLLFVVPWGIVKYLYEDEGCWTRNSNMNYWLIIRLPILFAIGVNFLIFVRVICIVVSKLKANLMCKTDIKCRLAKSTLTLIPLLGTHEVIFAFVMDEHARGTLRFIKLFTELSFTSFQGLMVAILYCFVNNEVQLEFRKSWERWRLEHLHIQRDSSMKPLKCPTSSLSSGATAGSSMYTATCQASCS

Data set [2] deals with T1, human recombinant GIP receptor (Homo sapiens, UniProt P48546).
T1 sequence (P48546 22-466): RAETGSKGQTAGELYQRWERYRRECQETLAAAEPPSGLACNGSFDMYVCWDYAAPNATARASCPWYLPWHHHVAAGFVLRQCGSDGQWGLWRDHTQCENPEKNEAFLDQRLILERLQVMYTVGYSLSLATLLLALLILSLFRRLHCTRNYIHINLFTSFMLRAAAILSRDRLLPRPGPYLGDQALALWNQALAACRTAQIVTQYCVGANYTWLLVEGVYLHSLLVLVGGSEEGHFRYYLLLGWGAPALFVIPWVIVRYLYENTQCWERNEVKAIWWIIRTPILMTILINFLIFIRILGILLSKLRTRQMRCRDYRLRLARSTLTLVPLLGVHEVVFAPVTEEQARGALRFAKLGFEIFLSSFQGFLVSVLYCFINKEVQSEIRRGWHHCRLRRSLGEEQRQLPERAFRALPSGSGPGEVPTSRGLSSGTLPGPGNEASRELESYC
The data set can be described thus: TagLite binding assay, GIP receptor, without and with 2% HSA.
Excerpt: as §1

Details of data set [3]: species or system cynomolgus monkeys. The note with it: cynomolgus monkey, in vivo, sc, 0.2 mg/kg. On the procedure: Subcutaneous (SC) dosing of the compounds in a vehicle of 0.1% bovine serum albumin in phosphate buffered saline solution was performed with male cynomolgus monkeys. […] Samples were obtained at 1, 4, 8, 12, 24, 48, 72, 96, 120, 168, 192, 240 and 336 hours after the single dose was administered.

Setting [4] is: 2% human serum albumin, read-out: GLP-1 receptor IC50 2% HSA.
The mark [5] stands for this setting: no HSA, read-out: GLP-1 receptor IC50 No HSA.
Setting [6] is: 2% human serum albumin, read-out: GIP receptor IC50 2% HSA.
Where [7] appears, read: no HSA, read-out: GIP receptor IC50 No HSA.

With `CC[C@H](C)[C@H](NC(=O)[C@H](CCCCN)NC(=O)[C@H](CC(=O)O)NC(=O)[C@H](CC(C)C)NC(=O)[C@H](Cc1ccccc1)NC(=O)[C@@H](NC(=O)[C@H](CO)NC(=O)[C@H](Cc1ccc(O)cc1)NC(=O)[C@H](CC(=O)O)NC(=O)[C@H](CO)NC(=O)[C@@H](NC(=O)[C@H](Cc1ccccc1)NC(=O)[C@@H](NC(=O)CNC(=O)[C@H](CCC(=O)O)NC(=O)C(C)(C)NC(=O)[C@@H](N)Cc1ccc(O)cc1)[C@@H](C)O)[C@@H](C)O)[C@@H](C)CC)C(=O)N[C@@H](C)C(=O)N[C@@H](CCC(N)=O)C(=O)N[C@@H](CCCCNC(=O)COCCOCCNC(=O)COCCOCCNC(=O)CC[C@H](NC(=O)CCCCCCCCCCCCCCCCCCP(=O)(O)O)C(=O)O)C(=O)N[C@@H](C)C(=O)N[C@@H](Cc1ccccc1)C(=O)N[C@H](C(=O)N[C@@H](CC(N)=O)C(=O)N[C@@H](Cc1c[nH]c2ccccc12)C(=O)N[C@@H](CC(C)C)C(=O)N[C@H](C(=O)N[C@@H](C)C(=O)NCC(=O)NCC(=O)N1CCC[C@H]1C(=O)N[C@@H](CO)C(=O)N[C@@H](CO)C(=O)NCC(=O)N[C@@H](C)C(=O)N1CCC[C@H]1C(=O)N1CCC[C@H]1C(=O)N1CCC[C@H]1C(=O)N[C@@H](CO)C(N)=O)[C@@H](C)CC)C(C)C` [Compound 21] (H-Y[Aib]EGTFTSDYSIFLDKIAQK([AEEA-AEEA-γGlu-Nonadecanoyl(19-PO3H2)])AFVNWLIAGGPSSGAPPPS-NH2), the IC50 in data set [1] (setting [4]) came out at 1.1 µM. In addition, the IC50 in data set [1] (setting [5]) was determined as 0.144 µM. Also, the IC50 in data set [2] (setting [6]) was found to be 5.28 µM. Besides, the IC50 in data set [2] (setting [7]) was found to be 0.561 µM. In addition, in data set [3], the area under the curve AUC(0-inf) turned out to be 54 µg·h/mL, the AUC(0-t) is 49.4 µg·h/mL, the Cmax was determined as 339 ng/mL and the Tmax worked out at 48 h. For the same molecule, in data set [3], the half-life was 90.5 h and the “mean half life longer compared to tirzepatide” value is reported as “at least 50%”.
For `CC[C@H](C)[C@H](NC(=O)[C@H](CC(C)C)NC(=O)[C@H](Cc1c[nH]c2ccccc12)NC(=O)[C@H](CCC(N)=O)NC(=O)[C@@H](NC(=O)[C@H](Cc1ccccc1)NC(=O)[C@H](C)NC(=O)[C@H](CCCCNC(=O)COCCOCCNC(=O)COCCOCCNC(=O)CC[C@H](NC(=O)CCCCCCCCCCCCCCCCCCP(=O)(O)O)C(=O)O)NC(=O)[C@H](CCC(N)=O)NC(=O)[C@H](C)NC(=O)[C@@H](NC(=O)[C@H](CCCCN)NC(=O)[C@H](CC(=O)O)NC(=O)[C@H](CC(C)C)NC(=O)C(C)(C)NC(=O)[C@@H](NC(=O)[C@H](CO)NC(=O)[C@H](Cc1ccc(O)cc1)NC(=O)[C@H](CC(=O)O)NC(=O)[C@H](CO)NC(=O)[C@@H](NC(=O)[C@H](Cc1ccccc1)NC(=O)[C@@H](NC(=O)CNC(=O)[C@H](CCC(=O)O)NC(=O)C(C)(C)NC(=O)[C@@H](N)Cc1ccc(O)cc1)[C@@H](C)O)[C@@H](C)O)[C@@H](C)CC)[C@@H](C)O)C(C)C)C(=O)N[C@@H](C)C(=O)NCC(=O)NCC(=O)N1CCC[C@H]1C(=O)N[C@@H](CO)C(=O)N[C@@H](CO)C(=O)NCC(=O)N[C@@H](C)C(=O)N1CCC[C@H]1C(=O)N1CCC[C@H]1C(=O)N1CCC[C@H]1C(=O)N[C@@H](CO)C(N)=O` [Compound 23] (H-Y[Aib]EGTFTSDYSI[Aib]LDKTAQK([AEEA-AEEA-γGlu-Nonadecanoyl(19-PO3H2)])AFVQWLIAGGPSSGAPPPS-NH2), the IC50 in data set [1] (setting [4]) stood at 3.12 µM. Moreover, the IC50 in data set [1] (setting [5]) turned out to be 0.4 µM. For the same molecule, in data set [2] (setting [6]), the IC50 was 5.63 µM. The IC50 in data set [2] (setting [7]) worked out at 0.873 µM. For the same molecule, in data set [3], the AUC(0-inf) worked out at 574 µg·h/mL, the AUC(0-t) is 439 µg·h/mL, the highest concentration (Cmax) stood at 2940 ng/mL and the Tmax was found to be 34.7 h. Also, in data set [3], the half-life was 159 h, the “mean half life as compared to tirzepatide (in words)” value is recorded as “more than twice an long as compared to tirzepatide” and the “mean half life longer compared to tirzepatide” value was “at least 50%”.
For the molecule `CC[C@H](C)[C@H](NC(=O)[C@H](CC(C)C)NC(=O)[C@H](Cc1c[nH]c2ccccc12)NC(=O)[C@H](CCC(N)=O)NC(=O)[C@@H](NC(=O)[C@H](Cc1ccccc1)NC(=O)[C@H](C)NC(=O)[C@H](CCCCNC(=O)COCCOCCNC(=O)COCCOCCNC(=O)CC[C@H](NC(=O)CCCCCCCCCCCCCCCCCCP(=O)(O)O)C(=O)O)NC(=O)[C@H](CCC(N)=O)NC(=O)[C@H](CO)NC(=O)[C@@H](NC(=O)[C@H](CCCCN)NC(=O)[C@H](CC(=O)O)NC(=O)[C@H](CC(C)C)NC(=O)C(C)(C)NC(=O)[C@@H](NC(=O)[C@H](CO)NC(=O)[C@H](Cc1ccc(O)cc1)NC(=O)[C@H](CC(=O)O)NC(=O)[C@H](CO)NC(=O)[C@@H](NC(=O)[C@H](Cc1ccccc1)NC(=O)[C@@H](NC(=O)CNC(=O)[C@H](CCC(=O)O)NC(=O)C(C)(C)NC(=O)[C@@H](N)Cc1ccc(O)cc1)[C@@H](C)O)[C@@H](C)O)[C@@H](C)CC)[C@@H](C)CC)C(C)C)C(=O)N[C@@H](C)C(=O)NCC(=O)NCC(=O)N1CCC[C@H]1C(=O)N[C@@H](CO)C(=O)N[C@@H](CO)C(=O)NCC(=O)N[C@@H](C)C(=O)N1CCC[C@H]1C(=O)N1CCC[C@H]1C(=O)N1CCC[C@H]1C(=O)N[C@@H](CO)C(N)=O` [Compound 24] (H-Y[Aib]EGTFTSDYSI[Aib]LDKISQK([AEEA-AEEA-γGlu-Nonadecanoyl(19-PO3H2)])AFVQWLIAGGPSSGAPPPS-NH2), the half-inhibitory concentration (IC50) in data set [1] (setting [4]) was 6.83 µM. For the same molecule, in data set [1] (setting [5]), the IC50 turned out to be 0.686 µM. Also, in data set [2] (setting [6]), the IC50 was found to be 11.4 µM. Moreover, the IC50 in data set [2] (setting [7]) is 1.16 µM. Besides, in data set [3], the AUC(0-inf) stood at 348 µg·h/mL, the AUC(0-t) turned out to be 302 µg·h/mL, the highest level (Cmax) was 2130 ng/mL and the time to peak (Tmax) was found to be 22.7 h. Besides, in data set [3], the half-life was 111 h and the “mean half life longer compared to tirzepatide” value was “at least 50%”.
